# Reference: patent publication US20250255926A1, “GINGEROL COMPOSITIONS AND RELATED METHODS” (ThermoLife International, LLC, priority 2024, published 2025)
# Like-named read-outs stand apart in the source and are kept apart here.
# Legend:
# [1] = system: herpes simplex virus infection; experiment: Herpes simplex blister outbreak in two subjects (Example 6); type: in vivo, human; conditions: same two subjects
# Protocol: Two females ([…]) with a chronic herpes simplex virus infection with frequent outbreaks of blisters on their lips ingested 1000 ml of the water-soluble ginger extract produced according to Example 1 while acutely suffering from large painful blisters.
# For past outbreaks, both subjects tried multiple remedies, both pharmaceutical and natural, to treat the blisters. They include Abriva®, tea tree oil, toothpaste, lysine, acyclovir, topical hydrogen peroxide, Vaseline® and Aquafor®.
# [2] = cited from earlier work
smiles,measurement,setting,value
"OO [topical hydrogen peroxide, hydrogen peroxide]",Relief or healing of blisters in past outbreaks,[1],None of those remedies provided any noticeable immediate relief or greater healing of the symptoms
"CCCCC/C=C/C(=O)CCc1ccc(O)c(OC)c1 [Example 6-shogoal, 6-shogoal]","Solubility, pH 2 - HCl buffer","[2]; pH 2 HCl buffer, n = 2",<10 μM
same,"Solubility, pH 4 - citrate buffer","[2]; pH 4 citrate buffer, n = 2",<10 μM
same,"Solubility, pH 7.4 - phosphate buffer","[2]; pH 7.4 phosphate buffer, n = 2",<10 μM
NCCCC[C@H](N)C(=O)O [lysine],Relief or healing of blisters in past outbreaks,[1],None of those remedies provided any noticeable immediate relief or greater healing of the symptoms
Nc1nc2c(ncn2COCCO)c(=O)[nH]1 [acyclovir],Relief or healing of blisters in past outbreaks,[1],None of those remedies provided any noticeable immediate relief or greater healing of the symptoms
"CCCCC[C@H](O)CC(=O)CCc1ccc(O)c(OC)c1 [Example 6-gingerol, 6-gingerol]","Solubility, pH 2 - HCl buffer",[2]; pH 2,>100 μM
same,"Solubility, pH 4 - citrate buffer",[2]; pH 4,>100 μM
same,"Solubility, pH 7.4 - phosphate buffer",[2]; pH 7.4,>100 μM
"CCCCCCCCC[C@H](O)CC(=O)CCc1ccc(O)c(OC)c1 [Example 10-gingerol, 10-gingerol]","Solubility, pH 2 - HCl buffer","[2]; pH 2 HCl buffer, n = 2",<10 μM
same,"Solubility, pH 4 - citrate buffer","[2]; pH 4 citrate buffer, n = 2",<10 μM
same,"Solubility, pH 7.4 - phosphate buffer","[2]; pH 7.4 phosphate buffer, n = 2",<10 μM
"CCCCCCC[C@H](O)CC(=O)CCc1ccc(O)c(OC)c1 [Example 8-gingerol, 8-gingerol]","Solubility, pH 2 - HCl buffer",[2]; pH 2,>100 μM
same,"Solubility, pH 4 - citrate buffer",[2]; pH 4,>100 μM
same,"Solubility, pH 7.4 - phosphate buffer",[2]; pH 7.4,>100 μM
